One test deals with D2 receptor (Homo sapiens, UniProt P14416). Conditions: 1-100 nM dopamine, in vitro; cited from earlier work.
The target of another test is T1, striatal D2 receptors (Rattus norvegicus, UniProt P61169).
T1 construct: each rat underwent CO2 narcosis and cervical dislocation; the striata were removed; from tissue; host or cells: rat striatum (male Sprague Dawley)
Kind of test: [3H]PHNO binding to striatal D2 receptors. The conditions noted are these: control striata. On the procedure: To induce ethanol dependence, rats (male Sprague Dawley, 200 g) received an intraperitoneal injection of 0.9% NaCl or 2 g/kg ethanol twice daily (i.e., 1.4 ml of 18% ethanol [in 0.9% NaCl] per 100 g at 9 AM and again at 3 PM daily) for 10 days (Lindholm et al., Alcohol 22: 165-171, 2000). On different days during the withdrawal period, each rat underwent CO2 narcosis and cervical dislocation; the striata were removed. The frozen (−70° C.) striata were blotted and weighed. […] The binding of [^3H]PHNO (or [+]-4-propyl-9-hydroxynaphthoxazine) (0.1 to 4.5 nM; […]; custom synthesized by New England Nuclear Corp.; non-specific binding defined by 10 μM S-(−)-sulpiride) to striatal D2 receptors was done as reported elsewhere (Seeman et al., Synapse 14: 254-262, 1993; Synapse 46: 235-239, 2002).
To confirm the elevation of D2^High sites by another method, [^3H]PHNO (or [+]-4-propyl-9-hydroxynaphthoxazine), a selective D2 agonist (Seeman et al., Synapse 14: 254-262, 1993) can be used.

The subject of test [1] is high-affinity states of D2. The conditions noted are these: rats sensitized to amphetamine; cited from earlier work.
The target of test [2] is T2, high-affinity state of dopamine D2 receptor (D2High) (Rattus norvegicus, UniProt P61169). The conditions noted are these: 7 days withdrawal, [3H]PHNO.
Test [3] addresses T2, high-affinity state of dopamine D2 receptor (D2High).
Test [4] has as its system high-affinity state of dopamine D2 receptor (D2High). The class given is in vivo, rat.
Where [5] appears, read: first eight days after stopping ethanol, [3H]raclopride.

Like-named read-outs stand apart in the source and are kept apart here.

T2 sequence (P61169 whole entry): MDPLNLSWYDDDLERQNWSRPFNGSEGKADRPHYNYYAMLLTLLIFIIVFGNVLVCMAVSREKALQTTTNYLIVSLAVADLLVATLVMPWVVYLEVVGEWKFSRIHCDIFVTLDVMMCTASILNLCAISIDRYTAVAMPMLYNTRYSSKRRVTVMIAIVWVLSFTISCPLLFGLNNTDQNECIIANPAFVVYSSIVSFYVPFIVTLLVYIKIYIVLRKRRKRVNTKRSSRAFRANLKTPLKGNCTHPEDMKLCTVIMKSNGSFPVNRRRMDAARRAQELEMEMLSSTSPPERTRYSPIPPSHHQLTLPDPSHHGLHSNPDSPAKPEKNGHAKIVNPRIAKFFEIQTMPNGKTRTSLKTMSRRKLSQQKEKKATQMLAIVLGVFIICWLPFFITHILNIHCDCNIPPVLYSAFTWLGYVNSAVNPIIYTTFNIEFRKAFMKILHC
D2 receptor, sequence (P14416 whole entry): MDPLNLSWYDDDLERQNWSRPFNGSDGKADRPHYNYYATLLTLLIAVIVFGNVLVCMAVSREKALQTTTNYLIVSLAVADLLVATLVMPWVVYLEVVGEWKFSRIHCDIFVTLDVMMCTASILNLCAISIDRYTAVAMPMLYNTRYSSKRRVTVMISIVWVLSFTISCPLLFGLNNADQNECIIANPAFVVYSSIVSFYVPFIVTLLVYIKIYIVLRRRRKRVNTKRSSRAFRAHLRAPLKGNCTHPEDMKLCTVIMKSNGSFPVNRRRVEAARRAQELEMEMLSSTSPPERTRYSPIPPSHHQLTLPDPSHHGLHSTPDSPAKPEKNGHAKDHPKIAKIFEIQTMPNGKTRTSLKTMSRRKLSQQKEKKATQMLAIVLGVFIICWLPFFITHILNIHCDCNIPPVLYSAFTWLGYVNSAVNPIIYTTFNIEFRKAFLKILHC
T1 sequence (P61169 whole entry): as the sequence (P61169 whole entry) above

With `CCN1CCC[C@H]1CNC(=O)c1c(O)c(Cl)cc(Cl)c1OC` (racemic) [[^3H]raclopride], the “displacement by low concentrations of dopamine” value at D2 receptor is given as “not significantly displaced”.

On to `CCCN1CCOC2c3cc(O)ccc3CCC21` (stereo not drawn) [[^3H]PHNO, [+]-4-propyl-9-hydroxynaphthoxazine], for which, at striatal D2 receptors, the dissociation constant Kd (usually the constant that tells how readily two partners part at equilibrium) was 0.71 nM.

As to `CC(N)Cc1ccccc1` (stereo not drawn) [amphetamine], the “elevation of high-affinity states of D2” value in test [1] is on record as “over 350%”.

With `CCO` [ethanol], the “increase of D2High over control value of 2.6 pmol/g” value in test [2] stood at 273%. This molecule registered a D2High in test [2] (ethanol-treated striata) of 7.1 pmol/g. For the same molecule, in test [3] (before returning to normal), the “duration of elevation of D2High sites after ethanol withdrawal” value was “almost two weeks”. The D2High sites in test [3] (day 15 after stopping ethanol (back to normal)) was not above 2 pmol/g; in test [3] (days 11 and 12 after stopping ethanol) it was 4.8 pmol/g. The “increase in D2High” value in test [3] (ethanol-withdrawn) is on record as 3.2 fold. Besides, the D2 density in test [3] (first eight days after stopping ethanol (2 g/kg i.p. twice daily, 10 days), [3H]raclopride, no guanilylimidodiphosphate) was 19 ± 0.8 pmol/g. Also, the “D2High density (increase in receptor density with guanilylimidodiphosphate)” value in test [3] (setting [5]) was determined as 7.2 ± 0.6 pmol/g. In test [3] (setting [5]), the “D2 density in the presence of guanilylimidodiphosphate” value came to 26.1 ± 0.8 pmol/g. Also, in test [3] (upon withdrawal of ethanol, [3H]raclopride), the “increase of D2High over control value of 2 pmol/g” value came out at 360%.

In test [4] (ethanol-treated rats five days into withdrawal, isoflurane one hour (deep stage 3 surgical anesthesia), striata 24 hours later), `FC(F)OC(Cl)C(F)(F)F` (stereo not drawn) [isoflurane] came in with a D2High density of 1.3 pmol/g. Also, the “effect on elevated D2High” value in test [4] (one hour of deep general anesthesia, ethanol-withdrawn rats) is given as “restored D2^High to normal”.

The values above are taken from patent US20050124963A1, “Method for treating aspects of alcoholism, addiction and psychosis” (priority 2003, published 2005).
